# Assay results as given in ChEMBL document CHEMBL3045788, “Effect of abamectin on root-knot nematodes and tomato yield” (Pest Manag Sci, 2012).
# The source made the active and inactive calls. No cut-off for these calls is given here.
# How the values were obtained:
# [1] = tested on: Meloidogyne incognita; test: Nematicidal activity against second-stage juvenile Meloidogyne incognita (root-knot nematode) infested tomato plant under greenhouse condition assessed as plant height at 7.5 L/hectare measured after 30 days; type: functional
# [2] = tested on: Meloidogyne incognita; test: Nematicidal activity against second-stage juvenile Meloidogyne incognita (root-knot nematode) assessed as mortality after 48 hr; type: functional
# [3] = tested on: Meloidogyne incognita; test: Nematicidal activity against second-stage juvenile Meloidogyne incognita (root-knot nematode) infested tomato plant under greenhouse condition assessed as plant height at 10 L/hectare measured after 30 days; type: functional
# [4] = tested on: Meloidogyne incognita; test: Nematicidal activity against second-stage juvenile Meloidogyne incognita (root-knot nematode) infested tomato plant under greenhouse condition assessed as reduction in root galling index at 5 L/hectare measured after 30 days; type: functional, organism-based
# [5] = tested on: Meloidogyne incognita; test: Nematicidal activity against second-stage juvenile Meloidogyne incognita (root-knot nematode) infested tomato plant under greenhouse condition assessed as reduction in root galling index at 7.5 L/hectare measured after 30 days; type: functional, organism-based
# [6] = tested on: Meloidogyne incognita; test: Nematicidal activity against second-stage juvenile Meloidogyne incognita (root-knot nematode) infested tomato plant under greenhouse condition assessed as reduction in root galling index at 10 L/hectare measured after 30 days; type: functional, organism-based
# [7] = tested on: Meloidogyne incognita; test: Nematicidal activity against Meloidogyne incognita (root-knot nematode) assessed as per seed; type: functional, organism-based
# [8] = tested on: Meloidogyne incognita; test: Nematicidal activity against second-stage juvenile Meloidogyne incognita (root-knot nematode) infested tomato plant under greenhouse condition assessed as plant vigour at 5 L/hectare measured after 30 days; type: functional
# [9] = tested on: Meloidogyne incognita; test: Nematicidal activity against second-stage juvenile Meloidogyne incognita (root-knot nematode) infested tomato plant under greenhouse condition assessed as plant vigour at 7.5 L/hectare measured after 30 days; type: functional
# [10] = tested on: Meloidogyne incognita; test: Nematicidal activity against second-stage juvenile Meloidogyne incognita (root-knot nematode) infested tomato plant under greenhouse condition assessed as plant vigour at 10 L/hectare measured after 30 days; type: functional
# [11] = tested on: Meloidogyne incognita; test: Nematicidal activity against second-stage juvenile Meloidogyne incognita (root-knot nematode) infested tomato plant under greenhouse condition assessed as plant height at 5 L/hectare measured after 30 days; type: functional
# [12] = tested on: Meloidogyne incognita; test: Nematicidal activity against second-stage juvenile Meloidogyne incognita (root-knot nematode) infested tomato field assessed as plant height at 5 L/hectare measured after 50 days; type: functional
# [13] = tested on: Meloidogyne incognita; test: Nematicidal activity against second-stage juvenile Meloidogyne incognita (root-knot nematode) infested tomato field assessed as plant height at 7.5 L/hectare measured after 50 days; type: functional
# [14] = tested on: Meloidogyne incognita; test: Nematicidal activity against second-stage juvenile Meloidogyne incognita (root-knot nematode) infested tomato field assessed as plant height at 10 L/hectare measured after 50 days; type: functional
# [15] = tested on: Meloidogyne incognita; test: Nematicidal activity against second-stage juvenile Meloidogyne incognita (root-knot nematode) infested tomato field assessed as reduction in number of nematodes in soil at 5 L/hectare measured after 60 days; type: functional, organism-based
# [16] = tested on: Meloidogyne incognita; test: Nematicidal activity against second-stage juvenile Meloidogyne incognita (root-knot nematode) infested tomato field assessed as reduction in number of nematodes in soil at 7.5 L/hectare measured after 60 days; type: functional, organism-based
# [17] = tested on: Meloidogyne incognita; test: Nematicidal activity against second-stage juvenile Meloidogyne incognita (root-knot nematode) infested tomato field assessed as reduction in number of nematodes in soil at 10 L/hectare measured after 60 days; type: functional, organism-based
# [18] = tested on: Meloidogyne incognita; test: Nematicidal activity against second-stage juvenile Meloidogyne incognita (root-knot nematode) infested tomato field assessed as reduction in number of nematodes in soil at 5 L/hectare measured after 40 days; type: functional, organism-based
# [19] = tested on: Meloidogyne incognita; test: Nematicidal activity against second-stage juvenile Meloidogyne incognita (root-knot nematode) infested tomato field assessed as reduction in number of nematodes in soil at 7.5 L/hectare measured after 40 days; type: functional, organism-based
# [20] = tested on: Meloidogyne incognita; test: Nematicidal activity against second-stage juvenile Meloidogyne incognita (root-knot nematode) infested tomato field assessed as reduction in number of nematodes in soil at 10 L/hectare measured after 40 days; type: functional, organism-based
# [21] = tested on: Meloidogyne incognita; test: Nematicidal activity against second-stage juvenile Meloidogyne incognita (root-knot nematode) infested tomato field assessed as reduction in number of nematodes in soil at 5 L/hectare measured after 20 days; type: functional, organism-based
# [22] = tested on: Meloidogyne incognita; test: Nematicidal activity against second-stage juvenile Meloidogyne incognita (root-knot nematode) infested tomato field assessed as reduction in number of nematodes in soil at 7.5 L/hectare measured after 20 days; type: functional, organism-based
# [23] = tested on: Meloidogyne incognita; test: Nematicidal activity against second-stage juvenile Meloidogyne incognita (root-knot nematode) infested tomato field assessed as reduction in number of nematodes in soil at 10 L/hectare measured after 20 days; type: functional, organism-based
# [24] = tested on: Meloidogyne incognita; test: Nematicidal activity against second-stage juvenile Meloidogyne incognita (root-knot nematode) infested tomato plant under greenhouse condition assessed as fresh root weight at 5 L/hectare measured after 30 days; type: functional
# [25] = tested on: Meloidogyne incognita; test: Nematicidal activity against second-stage juvenile Meloidogyne incognita (root-knot nematode) infested tomato plant under greenhouse condition assessed as fresh root weight at 7.5 L/hectare measured after 30 days; type: functional
# [26] = tested on: Meloidogyne incognita; test: Nematicidal activity against second-stage juvenile Meloidogyne incognita (root-knot nematode) infested tomato plant under greenhouse condition assessed as fresh root weight at 10 L/hectare measured after 30 days; type: functional
# [27] = tested on: Meloidogyne incognita; test: Nematicidal activity against second-stage juvenile Meloidogyne incognita (root-knot nematode) infested tomato field assessed as plant vigour at 5 L/hectare measured after 30 days; type: functional
# [28] = tested on: Meloidogyne incognita; test: Nematicidal activity against second-stage juvenile Meloidogyne incognita (root-knot nematode) infested tomato field assessed as plant vigour at 7.5 L/hectare measured after 30 days; type: functional
# [29] = tested on: Meloidogyne incognita; test: Nematicidal activity against second-stage juvenile Meloidogyne incognita (root-knot nematode) infested tomato field assessed as plant vigour at 10 L/hectare measured after 30 days; type: functional
# [30] = tested on: Meloidogyne incognita; test: Nematicidal activity against second-stage juvenile Meloidogyne incognita (root-knot nematode) infested tomato field assessed as medium fruit yield at 10 L/hectare; type: functional
# [31] = tested on: Meloidogyne incognita; test: Nematicidal activity against second-stage juvenile Meloidogyne incognita (root-knot nematode) infested tomato field assessed as large fruit yield at 5 L/hectare; type: functional
# [32] = tested on: Meloidogyne incognita; test: Nematicidal activity against second-stage juvenile Meloidogyne incognita (root-knot nematode) infested tomato field assessed as large fruit yield at 7.5 L/hectare; type: functional
# [33] = tested on: Meloidogyne incognita; test: Nematicidal activity against second-stage juvenile Meloidogyne incognita (root-knot nematode) infested tomato field assessed as large fruit yield at 10 L/hectare; type: functional
# [34] = tested on: Meloidogyne incognita; test: Nematicidal activity against second-stage juvenile Meloidogyne incognita (root-knot nematode) infested tomato field assessed as extra-large fruit yield at 5 L/hectare; type: functional
# [35] = tested on: Meloidogyne incognita; test: Nematicidal activity against second-stage juvenile Meloidogyne incognita (root-knot nematode) infested tomato field assessed as extra-large fruit yield at 7.5 L/hectare; type: functional
# [36] = tested on: Meloidogyne incognita; test: Nematicidal activity against second-stage juvenile Meloidogyne incognita (root-knot nematode) infested tomato field assessed as extra-large fruit yield at 10 L/hectare; type: functional
# [37] = tested on: Meloidogyne incognita; test: Nematicidal activity against second-stage juvenile Meloidogyne incognita (root-knot nematode) infested tomato field assessed as plant height at 5 L/hectare measured after 30 days; type: functional
# [38] = tested on: Meloidogyne incognita; test: Nematicidal activity against second-stage juvenile Meloidogyne incognita (root-knot nematode) infested tomato field assessed as plant height at 7.5 L/hectare measured after 30 days; type: functional
# [39] = tested on: Meloidogyne incognita; test: Nematicidal activity against second-stage juvenile Meloidogyne incognita (root-knot nematode) infested tomato field assessed as plant height at 10 L/hectare measured after 30 days; type: functional
# [40] = tested on: Meloidogyne incognita; test: Nematicidal activity against second-stage juvenile Meloidogyne incognita (root-knot nematode) infested tomato field assessed as reduction in root galling index at 5 L/hectare measured after 30 days; type: functional, organism-based
# [41] = tested on: Meloidogyne incognita; test: Nematicidal activity against second-stage juvenile Meloidogyne incognita (root-knot nematode) infested tomato field assessed as reduction in root galling index at 7.5 L/hectare measured after 30 days; type: functional, organism-based
# [42] = tested on: Meloidogyne incognita; test: Nematicidal activity against second-stage juvenile Meloidogyne incognita (root-knot nematode) infested tomato field assessed as reduction in root galling index at 10 L/hectare measured after 30 days; type: functional, organism-based
# [43] = tested on: Meloidogyne incognita; test: Nematicidal activity against second-stage juvenile Meloidogyne incognita (root-knot nematode) infested tomato field assessed as marketable yield at 5 L/hectare; type: functional
# [44] = tested on: Meloidogyne incognita; test: Nematicidal activity against second-stage juvenile Meloidogyne incognita (root-knot nematode) infested tomato field assessed as marketable yield at 7.5 L/hectare; type: functional
# [45] = tested on: Meloidogyne incognita; test: Nematicidal activity against second-stage juvenile Meloidogyne incognita (root-knot nematode) infested tomato field assessed as marketable yield at 10 L/hectare; type: functional
# [46] = tested on: Meloidogyne incognita; test: Nematicidal activity against second-stage juvenile Meloidogyne incognita (root-knot nematode) infested tomato field assessed as medium fruit yield at 5 L/hectare; type: functional
# [47] = tested on: Meloidogyne incognita; test: Nematicidal activity against second-stage juvenile Meloidogyne incognita (root-knot nematode) infested tomato field assessed as medium fruit yield at 7.5 L/hectare; type: functional
structure (smiles),measurement,setting,value
CC[C@H](C)[C@H]1O[C@]2(C=C[C@@H]1C)C[C@@H]1C[C@@H](C/C=C(\C)[C@@H](O[C@H]3C[C@H](OC)[C@@H](O[C@H]4C[C@H](OC)[C@@H](O)[C@H](C)O4)[C@H](C)O3)[C@@H](C)/C=C/C=C3\CO[C@@H]4[C@H](O)C(C)=C[C@@H](C(=O)O1)[C@]34O)O2.CO[C@H]1C[C@H](O[C@H]2[C@H](C)O[C@@H](O[C@@H]3/C(C)=C/C[C@@H]4C[C@@H](C[C@]5(C=C[C@H](C)[C@@H](C(C)C)O5)O4)OC(=O)[C@@H]4C=C(C)[C@@H](O)[C@H]5OC/C(=C\C=C\[C@@H]3C)[C@]54O)C[C@@H]2OC)O[C@@H](C)[C@@H]1O [ABAMECTIN],Activity,[1],37.5 cm
same,LC50,[2],7.06 mgAi/L
same,LC90,[2],21.81 mgAi/L
same,Activity,[3],39.2 cm
same,Activity,[4],Active
same,Activity,[5],Active
same,Activity,[6],Active
same,EC50,[7],0.016 mgAi
same,EC80,[7],0.28 mgAi
same,Activity,[8],85%
same,Activity,[9],87%
same,Activity,[10],92%
same,Activity,[11],35.4 cm
same,Activity,[12],94.3 cm
same,Activity,[13],98.6 cm
same,Activity,[14],102.8 cm
same,Activity,[15],Active
same,Activity,[16],Active
same,Activity,[17],Active
same,Activity,[18],Active
same,Activity,[19],Active
same,Activity,[20],Active
same,Activity,[21],Active
same,Activity,[22],Active
same,Activity,[23],Active
same,Activity,[24],0.98 g
same,Activity,[25],1.09 g
same,Activity,[26],1.14 g
same,Activity,[27],85%
same,Activity,[28],87%
same,Activity,[29],92%
same,Activity,[30],41.3%
same,Activity,[31],17.4%
same,Activity,[32],18.1%
same,Activity,[33],20.6%
same,Activity,[34],5.3%
same,Activity,[35],5.8%
same,Activity,[36],7.3%
same,Activity,[37],32.4 cm
same,Activity,[38],35.9 cm
same,Activity,[39],39.1 cm
same,Activity,[40],Active
same,Activity,[41],Active
same,Activity,[42],Active
same,Activity,[43],59.4%
same,Activity,[44],63.4%
same,Activity,[45],69.2%
same,Activity,[46],36.7%
same,Activity,[47],39.5%
